Experimental data taken from patent publication US20220218667A1, “DUAL INHIBITORS OF SOLUBLE EPOXIDE HYDROLASE AND METHODS OF USE THEREOF” (OROX Biosciences, Inc., priority 2019, published 2022).
“Also recorded” adds a separate entry of the source.

Experiments:
human sEH = target: T1, human sEH (Homo sapiens, UniProt P34913); assay: sEH inhibition IC50, fluorescent-based assay with purified recombinant sEH; type: biochemical; conditions: in vitro, relative to OX1
T1 sequence (P34913 1-555): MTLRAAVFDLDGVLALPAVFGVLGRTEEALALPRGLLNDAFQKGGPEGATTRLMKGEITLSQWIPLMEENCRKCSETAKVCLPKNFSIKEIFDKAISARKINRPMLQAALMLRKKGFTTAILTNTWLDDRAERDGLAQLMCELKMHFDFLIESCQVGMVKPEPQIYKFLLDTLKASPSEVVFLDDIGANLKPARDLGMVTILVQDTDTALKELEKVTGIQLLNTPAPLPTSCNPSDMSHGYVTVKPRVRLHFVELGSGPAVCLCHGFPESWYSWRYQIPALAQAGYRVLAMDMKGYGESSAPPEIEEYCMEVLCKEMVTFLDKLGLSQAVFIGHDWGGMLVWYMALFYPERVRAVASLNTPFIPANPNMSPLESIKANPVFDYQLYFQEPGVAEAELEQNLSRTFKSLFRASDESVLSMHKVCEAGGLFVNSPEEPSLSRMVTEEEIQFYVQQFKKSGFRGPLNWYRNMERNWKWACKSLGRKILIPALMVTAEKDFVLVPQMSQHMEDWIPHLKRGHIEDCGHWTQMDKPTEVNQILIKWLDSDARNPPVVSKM
Method: sEH inhibition IC50 values for the compounds presented herein can be assayed by a recombinant affinity assay using purified sEHs, from human, mouse or rat, in a fluorescent-based assay. In such an assay, enzymes, e.g., ˜1 nM human sEH, are incubated with a potential inhibitors for 5 min in 25 mM Bis-Tris/HCl buffer (200 μL; pH 7.0) at 30° C. before a substrate, e.g., cyano(2-methoxynaphthalen-6-yl)methyl trans-(3-phenyl-oxyran-2-yl)methyl carbonate, (CMNPC) is added ([S]final=5 μM).

COX-2 = target: T2, COX-2 (Homo sapiens, UniProt P35354); assay: COX-2 inhibition IC50, COX Fluorescent Inhibitor Screening Assay; type: biochemical
T2 construct: purchased Cayman Chemical 700100
T2 sequence (P35354 18-604): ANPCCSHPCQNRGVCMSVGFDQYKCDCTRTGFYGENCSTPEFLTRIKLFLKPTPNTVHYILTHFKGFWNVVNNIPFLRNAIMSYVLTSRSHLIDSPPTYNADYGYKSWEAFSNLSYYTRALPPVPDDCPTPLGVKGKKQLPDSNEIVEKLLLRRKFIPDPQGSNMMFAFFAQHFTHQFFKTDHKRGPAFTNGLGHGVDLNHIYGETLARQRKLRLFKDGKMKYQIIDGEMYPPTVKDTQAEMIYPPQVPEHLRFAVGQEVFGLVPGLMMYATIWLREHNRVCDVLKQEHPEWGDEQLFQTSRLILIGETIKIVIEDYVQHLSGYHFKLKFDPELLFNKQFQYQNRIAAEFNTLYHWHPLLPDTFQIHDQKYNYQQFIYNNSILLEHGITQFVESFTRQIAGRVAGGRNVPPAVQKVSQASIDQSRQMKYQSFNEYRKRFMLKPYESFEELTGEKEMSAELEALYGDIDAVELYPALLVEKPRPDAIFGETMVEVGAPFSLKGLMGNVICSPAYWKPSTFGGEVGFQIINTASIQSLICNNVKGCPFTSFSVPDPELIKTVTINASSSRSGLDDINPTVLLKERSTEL
Method: A COX Fluorescent Inhibitor Screening Assay Kit (catalog number 700100, Cayman Chemical, Ann Arbor, Mich.) is useful for assaying the ability of the compounds provided herein to inhibit ovine COX-1 and human recombinant COX-2 (% inhibition at 100 μM and IC50 values (M), respectively). Stock solutions of test compounds are dissolved in a minimum volume of DMSO. 10 μl of various concentrations of the test compound solutions, e.g., [I]final between 0.01 and 100 μM, are added to a series of supplied reaction buffer solutions (150 μl, 100 mM Tris-HCl, pH 8.0) with either COX-1 or COX-2 (10 μl) enzyme in the presence of Heme (10 μl) and a fluorometric substrate (10 μl). The reactions are initiated by quickly adding 10 μl of arachidonic acid solution and then incubating the system for two minutes at room temperature. Fluorescence of resorufin, which is produced by the reaction between PGG2 and fluorometric substrate, ADHP (10-acetyl-3,7-dihydroxyphenoxazine), is analyzed with an excitation wavelength of 535 nm and an emission wavelength of 590 nm. The intensity of this fluorescence is proportional to the amount of resorufin, which is proportional to the amount of PGG2 present in the well during the incubation. Percent inhibition is calculated by comparison from the 100% initial activity sample value (no inhibitor).

[1] = test system: C57B/L6 mice exposed to bleomycin; assay: Example 1: prophylactic treatment of mice exposed to bleomycin (IPF model); type: in vivo, mouse; conditions: OX1, OX3, Nintedanib 30 mg/kg QD, Pirfenidone 100 mg/kg BID
Excerpt: 4-(5-phenyl-3-{3-[3-(4-trifluoromethyl-phenyl)-ureido]-propyl}-pyrazol-1-yl)-benzenesulfonamide (PTUPB) [termed OX1] was compared to Pirfenidone, Nintedanib, and GSK225629415 [termed OX3] for treatment of IPF using an established model for IPF treating, which is prophylactic treatment of mice exposed to the chemotherapeutic agent bleomycin. […] Pirfenidone and Nintedanib are standard of care for the treatment of idiopathic pulmonary fibrosis and served as reference compounds in the experiment.
C57B/L6 mice were used in the experiments. When used, Bleomycin was administered intra-oropharyngeally, 1.5 U/kg, QD per established protocol. The test articles were dosed via oral gavage in 200 μL/day vehicle. The doses and formulations of test articles were selected based on the literature describing the lowest doses capable of eliciting pharmacological action.
Animals were dosed with the test articles (or vehicle) starting at day −1 to day 20. On day 1, daily doses of Bleomycin commenced in all but group 1 (negative control) which received the vehicle. On day 21, all animals were weighed and sacrificed. After lungs and bronco-alveolar lavage fluid (BALF) were harvested, they were prepared according to standard procedures for further analysis and histology. All animals were assessed twice a week for body weight and overall appearance. Efficacy endpoints measured in this study included lung weight, total leukocytes, and histology as determined by Mason's Trichrome stain and scored using a modified Ashcroft score.
The following parameters were measured in bronchoalveolar fluid (BALF): 1) soluble collagen and 2) differential leukocyte counts for different leukocyte populations.
After weighing and removal of BALF from the lungs, they were inflated and fixed using 10% neutral buffered formalin for histopathology analysis. Fifty-four formalin-fixed lung samples from mice were submitted to HistoTox Labs and were processed routinely. Two slides from each block were sectioned and stained with hematoxylin and eosin (H&E) or Masson's trichrome. Glass slides were evaluated with light microscopy by a board-certified veterinary pathologist. Lung sections were scored according to the modified Ashcroft scale.

[2] = day 21, compared to vehicle (Group 2)

In the case of CNc1nc(C)nc(N[C@H]2CCC[C@@H](C(=O)NCc3ccc(C#N)cc3C(F)(F)F)C2)n1 [OX3], the “fold more potent against sEH than OX1” value (human sEH) is reported as “roughly 75 fold”, the IC50 (COX-2) is reported as over 1000 nM and the “times less potent on COX-2 than OX1” value (COX-2; in vitro, relative to OX1) is reported as “at least 10 times”. For the same compound, the “body weight course over 21 days” value ([1]; bleomycin mice, oral gavage day -1 to 20) was “lost the least weight; also recorded: sustained weight loss”, the “neutrophil migration into BALF” value ([1]; day 21, oral) was “somewhat effective” and the “number of lymphocytes in BALF” value ([1]; day 21, oral) was “trend increasingly lower”. The “number of macrophages in BALF” value ([1]; day 21, oral) was “more macrophages”, the “total cell (leukocyte) count in BALF” value ([1]; day 21, oral) was “did not demonstrate the same level of reduction” and the “increased collagen (fibrosis) score, trichrome” value [1, 2] was “slightly lower”. The “mean Ashcroft score (lung histology)” value [1, 2] was “slightly lower” and the “mean score for mixed peribronchiolar/perivascular inflammation” value [1, 2] was “lower”.
